Assay results reported in the supplement of paper PMC4862054.

These molecules were tested on BT-474 (assay: normalised response (% of control), CellTiter-Glo; higher = more viable cells (100 = DMSO, 0 = benzethonium chloride kill control)). Conditions: incubation time: 72 h.
Method in brief: (§1)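 Every value is a normalised signal taken at one concentration of a dilution series. Compound was placed in 384-well plates at 5 concentrations in 10-fold steps over a compound-specific 10,000-fold range, and 20 µl of breast cancer cell suspension was seeded onto it. After 72 h, CellTox Green fluorescence (485/520 nm) was measured first and CellTiter-Glo luminescence second, following 10 min at room temperature. Each plate was scaled to 0.1 % DMSO (100) and a positive kill control (0).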

Compound | normalised response [%]
CC(C)Cn1cnc2c(N)nc3ccccc3c21 [Imiquimod] (250 nM) | 110
O=C(CCCCCCC(=O)Nc1ccc([C@H]2O[C@@H](CSc3nc(-c4ccccc4)c(-c4ccccc4)o3)C[C@@H](c3ccc(CO)cc3)O2)cc1)NO [Tubacin] (1000 nM) | 91.3
COc1cc2ncnc(Nc3ccc(F)c(Cl)c3)c2cc1NC(=O)/C=C/CN1CCCCC1 [Dacomitinib] (100 nM) | 94
CS(=O)(=O)c1ccc(C2=C(c3ccccc3)C(=O)OC2)cc1 [Rofecoxib] (1000 nM) | 101

The molecules below were run on DU-4475 (assay: normalised response (% of control), CellTox Green; higher = less cell death (100 = DMSO, 0 = benzethonium chloride kill control)). Conditions: incubation time: 72 h.
Method in brief: as §1

Compound | normalised response [%]
CC(C)Cn1cnc2c(N)nc3ccccc3c21 [Imiquimod] (250 nM) | 101
O=C(CCCCCCC(=O)Nc1ccc([C@H]2O[C@@H](CSc3nc(-c4ccccc4)c(-c4ccccc4)o3)C[C@@H](c3ccc(CO)cc3)O2)cc1)NO [Tubacin] (1000 nM) | 101
COc1cc2ncnc(Nc3ccc(F)c(Cl)c3)c2cc1NC(=O)/C=C/CN1CCCCC1 [Dacomitinib] (100 nM) | 99.5
CS(=O)(=O)c1ccc(C2=C(c3ccccc3)C(=O)OC2)cc1 [Rofecoxib] (1000 nM) | 112
CNCc1ccc(-c2[nH]c3cc(F)cc4c3c2CCNC4=O)cc1 [Rucaparib] (100 nM) | 95.7

Each molecule was assayed on BT-549 in the same assay as above. Conditions: incubation time: 72 h.
Method in brief: as §1

Compound | normalised response [%]
CC(C)Cn1cnc2c(N)nc3ccccc3c21 [Imiquimod] (250 nM) | 98.3
O=C(CCCCCCC(=O)Nc1ccc([C@H]2O[C@@H](CSc3nc(-c4ccccc4)c(-c4ccccc4)o3)C[C@@H](c3ccc(CO)cc3)O2)cc1)NO [Tubacin] (1000 nM) | 114
COc1cc2ncnc(Nc3ccc(F)c(Cl)c3)c2cc1NC(=O)/C=C/CN1CCCCC1 [Dacomitinib] (100 nM) | 98.9
CS(=O)(=O)c1ccc(C2=C(c3ccccc3)C(=O)OC2)cc1 [Rofecoxib] (1000 nM) | 98.2
CNCc1ccc(-c2[nH]c3cc(F)cc4c3c2CCNC4=O)cc1 [Rucaparib] (100 nM) | 71.6

Each molecule was assayed on CAL-148 in the same assay as above. Conditions: incubation time: 72 h.
Method in brief: as §1

Compound | normalised response [%]
CC(C)Cn1cnc2c(N)nc3ccccc3c21 [Imiquimod] (250 nM) | 76.8
O=C(CCCCCCC(=O)Nc1ccc([C@H]2O[C@@H](CSc3nc(-c4ccccc4)c(-c4ccccc4)o3)C[C@@H](c3ccc(CO)cc3)O2)cc1)NO [Tubacin] (1000 nM) | 99.9
COc1cc2ncnc(Nc3ccc(F)c(Cl)c3)c2cc1NC(=O)/C=C/CN1CCCCC1 [Dacomitinib] (100 nM) | 97.8
CS(=O)(=O)c1ccc(C2=C(c3ccccc3)C(=O)OC2)cc1 [Rofecoxib] (1000 nM) | 105
CNCc1ccc(-c2[nH]c3cc(F)cc4c3c2CCNC4=O)cc1 [Rucaparib] (100 nM) | 97.4

These molecules were tested on CAL-120 in the same assay as above. Conditions: incubation time: 72 h.
Method in brief: as §1

Compound | normalised response [%]
CC(C)Cn1cnc2c(N)nc3ccccc3c21 [Imiquimod] (250 nM) | 99.5
O=C(CCCCCCC(=O)Nc1ccc([C@H]2O[C@@H](CSc3nc(-c4ccccc4)c(-c4ccccc4)o3)C[C@@H](c3ccc(CO)cc3)O2)cc1)NO [Tubacin] (1000 nM) | 100
COc1cc2ncnc(Nc3ccc(F)c(Cl)c3)c2cc1NC(=O)/C=C/CN1CCCCC1 [Dacomitinib] (100 nM) | 96.7
CS(=O)(=O)c1ccc(C2=C(c3ccccc3)C(=O)OC2)cc1 [Rofecoxib] (1000 nM) | 101
CNCc1ccc(-c2[nH]c3cc(F)cc4c3c2CCNC4=O)cc1 [Rucaparib] (100 nM) | 98.9

These molecules were tested on CAL-85-1 in the same assay as above. Conditions: incubation time: 72 h.
Method in brief: as §1

Compound | normalised response [%]
CC(C)Cn1cnc2c(N)nc3ccccc3c21 [Imiquimod] (250 nM) | 89.3
O=C(CCCCCCC(=O)Nc1ccc([C@H]2O[C@@H](CSc3nc(-c4ccccc4)c(-c4ccccc4)o3)C[C@@H](c3ccc(CO)cc3)O2)cc1)NO [Tubacin] (1000 nM) | 102
COc1cc2ncnc(Nc3ccc(F)c(Cl)c3)c2cc1NC(=O)/C=C/CN1CCCCC1 [Dacomitinib] (100 nM) | 80.4
CS(=O)(=O)c1ccc(C2=C(c3ccccc3)C(=O)OC2)cc1 [Rofecoxib] (1000 nM) | 112
CNCc1ccc(-c2[nH]c3cc(F)cc4c3c2CCNC4=O)cc1 [Rucaparib] (100 nM) | 97.5

The molecules below were run on MCF-10A in the same assay as above. Conditions: incubation time: 72 h.
Method in brief: as §1

Compound | normalised response [%]
CC(C)Cn1cnc2c(N)nc3ccccc3c21 [Imiquimod] (250 nM) | 109
O=C(CCCCCCC(=O)Nc1ccc([C@H]2O[C@@H](CSc3nc(-c4ccccc4)c(-c4ccccc4)o3)C[C@@H](c3ccc(CO)cc3)O2)cc1)NO [Tubacin] (1000 nM) | 113
COc1cc2ncnc(Nc3ccc(F)c(Cl)c3)c2cc1NC(=O)/C=C/CN1CCCCC1 [Dacomitinib] (100 nM) | 94.3
CS(=O)(=O)c1ccc(C2=C(c3ccccc3)C(=O)OC2)cc1 [Rofecoxib] (1000 nM) | 118

What follows are molecules tested on CAL-51 in the same assay as above. Conditions: incubation time: 72 h.
Method in brief: as §1

Compound | normalised response [%]
CC(C)Cn1cnc2c(N)nc3ccccc3c21 [Imiquimod] (250 nM) | 94.4
O=C(CCCCCCC(=O)Nc1ccc([C@H]2O[C@@H](CSc3nc(-c4ccccc4)c(-c4ccccc4)o3)C[C@@H](c3ccc(CO)cc3)O2)cc1)NO [Tubacin] (1000 nM) | 93.4
COc1cc2ncnc(Nc3ccc(F)c(Cl)c3)c2cc1NC(=O)/C=C/CN1CCCCC1 [Dacomitinib] (100 nM) | 78.7
CS(=O)(=O)c1ccc(C2=C(c3ccccc3)C(=O)OC2)cc1 [Rofecoxib] (1000 nM) | 99.8
CNCc1ccc(-c2[nH]c3cc(F)cc4c3c2CCNC4=O)cc1 [Rucaparib] (100 nM) | 91.6

Each molecule was assayed on HCC1937 in the same assay as above. Conditions: incubation time: 72 h.
Method in brief: as §1

Compound | normalised response [%]
CC(C)Cn1cnc2c(N)nc3ccccc3c21 [Imiquimod] (250 nM) | 112
O=C(CCCCCCC(=O)Nc1ccc([C@H]2O[C@@H](CSc3nc(-c4ccccc4)c(-c4ccccc4)o3)C[C@@H](c3ccc(CO)cc3)O2)cc1)NO [Tubacin] (1000 nM) | 55.1
COc1cc2ncnc(Nc3ccc(F)c(Cl)c3)c2cc1NC(=O)/C=C/CN1CCCCC1 [Dacomitinib] (100 nM) | 92.7
CS(=O)(=O)c1ccc(C2=C(c3ccccc3)C(=O)OC2)cc1 [Rofecoxib] (1000 nM) | 96

Each molecule was assayed on MDA-MB-468 in the same assay as above. Conditions: incubation time: 72 h.
Method in brief: as §1

Compound | normalised response [%]
CC(C)Cn1cnc2c(N)nc3ccccc3c21 [Imiquimod] (250 nM) | 119
O=C(CCCCCCC(=O)Nc1ccc([C@H]2O[C@@H](CSc3nc(-c4ccccc4)c(-c4ccccc4)o3)C[C@@H](c3ccc(CO)cc3)O2)cc1)NO [Tubacin] (1000 nM) | -536
COc1cc2ncnc(Nc3ccc(F)c(Cl)c3)c2cc1NC(=O)/C=C/CN1CCCCC1 [Dacomitinib] (100 nM) | 74.8
